Laboratory results reported in publication PMC2662380 (Journal of medicinal chemistry, 2008).

Tests used:
[1] = tested on: MDA-MB-231 breast cancer cell line; assay: induction of cell death, trypan blue exclusion assay; assay type: cell-based, human; conditions: for induction of cell death (in words): different concentrations, 48 hours
[2] = tested on: caspase-8, PARP; assay: Western blot analysis of caspase-8 processing and PARP cleavage; conditions: MDA-MB-231, within 24 h

For `CN[C@@H](C)C(=O)N[C@H]1Cc2ccccc2[C@H]2CCC[C@@H](C(=O)NC(c3ccccc3)c3ccccc3)N2C1=O` [Compound 8], the “induction of cell death (in words)” value [1] was “least effective”.
With `CN[C@@H](C)C(=O)N[C@H]1Cc2ccccc2[C@H]2CC[C@@H](C(=O)N[C@@H]3CCCc4ccccc43)N2C1=O` [Compound 6] the “concentration that effectively induces cell death” value [1] was 100 nM, the “induction of cell death (in words)” value [1] was “most effective” and the “lowest concentration inducing processing of caspase-8 and cleavage of PARP” value [2] was 100 nM.
In the case of `CN[C@@H](C)C(=O)N[C@H]1Cc2ccccc2[C@H]2CC[C@@H](C(=O)NC(c3ccccc3)c3ccccc3)N2C1=O` [Compound 5], the “induction of cell death (in words)” value [1] was “capable of inducing cell death in a dose-dependent manner”.
